Source: ChEMBL document CHEMBL3046784, “Exploring QSAR of antiamoebic agents of isolated natural products by MLR, ANN, and RTO” (Med Chem Res, 2012)
Converted amounts (≈) assume the structure as drawn.

Tested on: Entamoeba histolytica
Assay: Antiamoebic activity against Entamoeba histolytica
Assay type: functional, organism-based
[1] = Entamoeba histolytica, read-out: IC50

SMILES	IC50 [1]	IC50
CC[C@H]1CN2CCc3c([nH]c4ccccc34)[C@@H]2C[C@H]1C[C@H]1c2[nH]c3ccccc3c2CCN1C.O=C(O)C(=O)O	0.65 µg/mL	–
CC(C)=CCC/C(C)=C/CC/C(C)=C/CC/C=C(\C)CC/C=C(\C)CCC=C(C)C	270 µg/mL (≈ 658 µM)	–
COC1=C[C@]23CCN(C)[C@H](Cc4cc(OC)c(OC)cc42)C3=CC1=O	50.1 µg/mL (≈ 147 µM)	–
COc1cc2c3cc1Oc1c(OC)c(OC)cc4c1[C@H](Cc1ccc(cc1)Oc1cc(ccc1O)C[C@H]3N(C)CC2)N(C)CC4 (stereo in doubt; 13) [AROMOLINE]	–	2.99 µg/mL (≈ 4.91 µM)
COc1cc2c3cc1Oc1c(OC)c(OC)cc4c1[C@H](Cc1ccc(cc1)Oc1cc(ccc1O)C[C@H]3N(C)CC2)N(C)CC4 (stereo in doubt; 117) [AROMOLINE]	–	19.64 µg/mL (≈ 32.3 µM)
COc1ccc2cc1Oc1ccc(cc1)C[C@H]1c3cc(c(OC)cc3CCN1C)Oc1c(OC)c(OC)cc3c1[C@H](C2)N(C)CC3 (stereo in doubt; 145) [FANCHININ]	–	25.16 µg/mL (≈ 40.4 µM)
COc1ccc2cc1Oc1ccc(cc1)C[C@H]1c3cc(c(OC)cc3CCN1C)Oc1c(OC)c(OC)cc3c1[C@H](C2)N(C)CC3 (stereo in doubt; 146) [FANCHININ]	–	10.51 µg/mL (≈ 16.9 µM)
CC[C@](C)(OC(C)=O)C(=O)O[C@H]1C(=O)O[C@@H]2C[C@H]3C(C)=CC(=O)[C@@H](O)[C@]3(C)[C@H]3[C@@]4(O)OC[C@]32[C@@H]1[C@@H](C)[C@H]4O [2'-ACETOXY-GLAUCARUBINONE]	0.155 µg/mL (≈ 0.289 µM)	–
COc1c(O)cc2oc(-c3ccc(O)cc3)c(OC)c(=O)c2c1O [3,6-DIMETHOXY KAEMPFEROL]	105 µg/mL (≈ 319 µM)	–
C=C[C@H]1CN2CC[C@H]1C[C@@H]2[C@@]12Nc3ccccc3[C@]1(O)CCO2 [3-EPIQUINAMINE]	12.9 µg/mL (≈ 41.3 µM)	–
CC[C@@H]1CN2CCc3c([nH]c4ccccc34)[C@H]2C[C@@H]1CCO [3-ISOCORYNANTHEOL]	4.1 µg/mL (≈ 13.7 µM)	–
C=C[C@H]1CN2CCc3c([nH]c4ccccc34)[C@@H]2C[C@@H]1C[C@H]1NCCc2c1[nH]c1cccc(OC)c21 [3ALPHA-17ALPHA-CINCHOPHYLLINE]	2.2 µg/mL (≈ 4.71 µM)	–
C=C[C@H]1CN2CCc3c([nH]c4ccccc34)[C@@H]2C[C@@H]1C[C@@H]1NCCc2c1[nH]c1cccc(OC)c21 [3ALPHA-17BETA-CINCHOPHYLLINE]	0.96 µg/mL (≈ 2.06 µM)	–
CCc1ccc2[n+](c1)CCc1c-2[nH]c2ccccc12 [5,6-DIHYDROFLAVOPEREIRINE]	6.02 µg/mL	–
C=C[C@H]1CN2CC[C@H]1C[C@H]2c1[nH]c2ccccc2c1CCOC [10-METHOXY CINCHONAMINE]	4.5 µg/mL (≈ 14.5 µM)	–
CC[C@@H]1CN2CC[C@@]34c5ccccc5N5[C@@H]([C@@H]6[C@H]7C[C@@H]8N(CC[C@@]89c8cccc(O)c8N(C(C)=O)[C@@H]69)C[C@H]7CC)OC[C@H]([C@H]1C[C@H]23)[C@H]54 [12'-HYDROXYISOSTRYCHNOBILINE]	21.4 µg/mL (≈ 33.7 µM)	–
Oc1cc(O)c2c(c1)O[C@H](c1ccc(O)c(O)c1)[C@H](O)C2 [(-)-EPICATECHIN]	1.92 µg/mL (≈ 6.61 µM)	–
COC(=O)C1=CO[C@H](O[C@@H]2O[C@H](COC(C)=O)[C@@H](O)[C@H](O)[C@H]2O)[C@H]2[C@@H]1C=C[C@@]21C=C(C(O)c2ccc(O)cc2)C(=O)O1 (stereo partly specified) [ACETYLGAERTNEROSIDE]	5.4 µg/mL (≈ 9.14 µM)	–
CCC(C)C(=O)O[C@H]1C(=O)O[C@@H]2C[C@H]3C(C)=CC(=O)[C@@H](O)[C@]3(C)[C@H]3[C@]4(O)OC[C@]32[C@@H]1[C@@H](C)[C@H]4O (stereo partly specified) [AILANTHINONE]	0.063 µg/mL (≈ 0.132 µM)	–

SMILES	IC50 [1]	IC50
CC[C@H]1[C@@H]2C[C@H]3[C@@H]4N(C)c5ccccc5[C@]45C[C@@H]([C@@H]2[C@H]5O)N3[C@@H]1O [AJMALINE]	> 100 µg/mL	–
C/C=C(/C=O)[C@@H]1C[C@H]2c3c(c4ccccc4n3[C@@H](O)C1)CCN2C [AKAGERINE]	17.1 µg/mL (≈ 52.7 µM)	–
O=c1cc(-c2ccc(O)cc2)oc2cc(OC3O[C@H](CO)[C@@H](O)[C@H](O)[C@H]3O)cc(O)c12 (stereo partly specified) [APIGENIN-7-O-GLUCOSIDE]	59.8 µg/mL (≈ 138 µM)	–
O=c1cc(-c2ccc(O)cc2)oc2cc(O)cc(O)c12 [APIGENIN]	12.7 µg/mL (≈ 47 µM)	–
COC(=O)C1=CO[C@@H](C)[C@@H]2CN3CCc4c([nH]c5ccc(OC)cc45)[C@@H]3C[C@H]12 [ARICINE]	3.6 µg/mL (≈ 9.41 µM)	–
CN1[C@@H]2CC[C@H]1C[C@@H](OC(=O)C(CO)c1ccccc1)C2 (stereo partly specified) [ATROPINE]	> 100 µg/mL	–
COc1cc2c3cc1Oc1c(OC)c(OC)cc4c1[C@@H](Cc1ccc(O)c(c1)Oc1ccc(cc1)C[C@@H]3N(C)CC2)N(C)CC4 [BERBAMINE]	22.4 µg/mL (≈ 36.7 µM)	–
COc1ccc2cc3[n+](cc2c1OC)CCc1cc2c(cc1-3)OCO2 [BERBERINE]	1 µg/mL	–
CC[C@H](CC[C@@H](C)[C@H]1CC[C@H]2[C@@H]3CC=C4C[C@@H](O)CC[C@]4(C)[C@H]3CC[C@]12C)C(C)C [BETA-SITOSTEROL]	52.3 µg/mL (≈ 126 µM)	–
C/C=C(/C)C(=O)O[C@H]1[C@@H]2[C@H](C)C(=O)O[C@@H]2C[C@@H](C)[C@@H]2C=CC(=O)[C@]21C [BREVILIN A]	3.11 µg/mL (≈ 8.98 µM)	–
COC(=O)[C@@]12OC[C@]34[C@H]([C@@H](O)[C@@H]1O)[C@@]1(C)CC(=O)C(O)=C(C)[C@@H]1C[C@H]3OC(=O)[C@H](OC(=O)/C=C(\C)C(C)C)[C@@H]24 [BRUCEANTIN]	0.019 µg/mL (≈ 0.0346 µM)	–
COC(=O)[C@@]12OC[C@]34[C@H]([C@@H](O)[C@@H]1O)[C@@]1(C)CC(=O)C(O)=C(C)[C@@H]1C[C@H]3OC(=O)[C@H](OC(=O)CC(C)C)[C@@H]24 [BRUCEINE A]	0.097 µg/mL (≈ 0.186 µM)	–
COC(=O)[C@@]12OC[C@]34[C@H]([C@@H](O)[C@@H]1O)[C@@]1(C)CC(=O)C(O)=C(C)[C@@H]1C[C@H]3OC(=O)[C@H](OC(C)=O)[C@@H]24 [BRUCEINE B]	0.306 µg/mL (≈ 0.637 µM)	–
COC(=O)[C@]12OC[C@]34[C@H]([C@@H](O)[C@@H]1O)[C@@]1(C)CC(=O)C(O)=C(C)[C@@H]1C[C@H]3OC(=O)[C@H](OC(=O)/C=C(\C)C(C)(C)O)[C@@H]24 [BRUCEINE C]	0.279 µg/mL (≈ 0.494 µM)	–
CC1=CC(=O)[C@@H](O)[C@]2(C)[C@H]3[C@@H](O)[C@H](O)[C@]4(C)OC[C@@]35[C@@H](C[C@@H]12)OC(=O)[C@H](O)[C@]54O [BRUCEINE D]	0.386 µg/mL (≈ 0.941 µM)	–
COC(=O)[C@]12OC[C@]34[C@H]([C@@H](O)[C@@H]1O)[C@@]1(C)CC(=O)C(O)=C(C)[C@@H]1C[C@H]3OC(=O)[C@H](OC(=O)C=C(C)C)[C@@H]24 [BRUSATOL]	0.062 µg/mL (≈ 0.119 µM)	–
O=c1ccc2nccc3c4ccccc4n1c23 [CANTHIN-6-ONE]	23 µg/mL (≈ 104 µM)	–
CC(=O)CCCCCCCCCC[C@H]1CC[C@@H](O)[C@@H](C)N1 [CASSINE]	12 µg/mL (≈ 40.2 µM)	–
CC[C@H]1CN2CCc3cc(OC)c(OC)cc3[C@@H]2C[C@@H]1C[C@H]1NCCc2cc(O)c(OC)cc21 [CEPHAELINE]	3.26 µg/mL (≈ 6.99 µM)	–

SMILES	IC50 [1]	IC50
O=c1cc(-c2ccccc2)oc2cc(O)cc(O)c12 [CHRYSIN]	81 µg/mL (≈ 319 µM)	–
COc1cc(-c2cc(=O)c3c(O)cc(O[C@@H]4O[C@H](CO)[C@@H](O)[C@H](O)[C@H]4O[C@@H]4O[C@@H](C)[C@H](O)[C@@H](O)[C@H]4O)cc3o2)ccc1O [CHRYSOERIOL-7-O-NEOHESPERIDOSIDE]	> 125 µg/mL	–
Cc1cc(O)c2c(c1)C(=O)c1cccc(O)c1C2=O [CHRYSOPHANOL]	6.21 µg/mL (≈ 24.4 µM)	–
Oc1cc(O)c2c(c1)O[C@H](c1ccc(O)c(O)c1)[C@@H](O)C2 [CIANIDANOL]	65.5 µg/mL (≈ 226 µM)	–
C=C[C@H]1CN2CC[C@H]1C[C@H]2c1[nH]c2ccccc2c1CCO [CINCHONAMINE]	14.8 µg/mL (≈ 49.9 µM)	–
COc1cc2c3c4c1Oc1cc5c(cc1O4)[C@H](Cc1ccc(O)c(c1)Oc1ccc(cc1)C[C@@H]3N(C)CC2)NCC5 [COCSOLINE]	9.86 µg/mL (≈ 18 µM)	–
CI.COc1cc2c3c4c1Oc1cc5c(cc1O4)[C@H](Cc1ccc(O)c(c1)Oc1ccc(cc1)C[C@@H]3N(C)CC2)N(C)CC5 [COCSULINE METHIODIDE]	28.9 µg/mL	–
COc1cc2c3c4c1Oc1cc5c(cc1O4)[C@H](Cc1ccc(O)c(c1)Oc1ccc(cc1)C[C@@H]3N(C)CC2)N(C)CC5 [COCSULINE]	13.2 µg/mL (≈ 23.5 µM)	–
C[C@@H]1N=C[C@]23CC[C@H]4[C@@H](CC=C5C[C@@H](N)CC[C@@]54C)[C@@H]2CC[C@H]13 [CONCKURCHINE]	12 µg/mL (≈ 38.4 µM)	–
CN[C@H]1CC[C@@]2(C)C(=CC[C@H]3[C@@H]4CC[C@@H]5[C@H](C)N=C[C@@]54CC[C@@H]32)C1 [CONESSIDINE]	2.29 µg/mL (≈ 7.01 µM)	–
C[C@@H]1NC[C@]23CC[C@H]4[C@@H](CC=C5C[C@@H](N(C)C)CC[C@@]54C)[C@@H]2CC[C@H]13 [CONESSIMINE]	1.87 µg/mL (≈ 5.46 µM)	–
C[C@H]1[C@H]2CC[C@H]3[C@@H]4CC=C5C[C@@H](N(C)C)CC[C@]5(C)[C@H]4CC[C@]23CN1C [CONESSINE]	8.97 µg/mL (≈ 25.2 µM)	–
COc1ccc2c3c(c4cc(OC)c(OC)cc4c2c1)C[C@H]1CCCCN1C3 [CRYPTOPLEURINE]	0.031 µg/mL (≈ 0.0821 µM)	–
COc1cc2c3cc1Oc1c(O)c(OC)cc4c1[C@H](Cc1ccc(cc1)Oc1cc(ccc1O)C[C@H]3NCC2)N(C)CC4 [DAPHNOLINE]	> 50 µg/mL	–
CC[C@@H]1CN2CC[C@@]34c5ccccc5N5[C@@H]([C@@H]6[C@H]7C[C@@H]8N(CC[C@@]89c8ccccc8N(C(C)=O)[C@@H]69)C[C@H]7CC)OC[C@H]([C@H]1C[C@H]23)[C@H]54 [DIDEHYDRO ISOSTRYCHNOBILINE]	21.4 µg/mL (≈ 34.6 µM)	–
COc1ccc2cc1-c1cc(ccc1O)C[C@@H]1c3c(cc(OC)c4c3Oc3cc5c(cc3O4)CCN(C)[C@H]5C2)CCN1C [DINKLACORINE]	19.8 µg/mL (≈ 34.4 µM)	–
C/C=C1/C[N+]2(C)CCc3c([nH]c4ccccc34)C2CC1C(CO)C(=O)OC (stereo unspecified) [DIPLOCELINE]	50 µg/mL	–
Oc1cc(O)c2c(c1)O[C@H](c1cc(O)c(O)c(O)c1)[C@H](O)C2 [EPIGALLOCATECHIN]	6.89 µg/mL (≈ 22.5 µM)	–
